According to PubChem BioAssay (NCI):
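Protocol summary: plate cells (96-well), add compound at 5 concentrations, incubate 48 h, interpolate endpoints linearly. At the TGI there is no net growth.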

Columns and labels:
Experiment in all cases: growth of human tumour cells (NCI), 48 h
[1] = test system: A498 renal
[2] = test system: CAKI-1 renal
[3] = test system: DU-145 prostate
[4] = test system: HCT-15 colon
[5] = test system: MDA-N
[6] = test system: NCI-H226 lung
[7] = test system: NCI-H460 lung
[8] = test system: OVCAR-3 ovarian
[9] = test system: SF-268 CNS
[10] = test system: SK-MEL-28 melanoma

| Structure (SMILES) | TGI [1] [µM] | TGI [2] [µM] | TGI [3] [µM] | TGI [4] [µM] | TGI [5] [µM] | TGI [6] [µM] | TGI [7] [µM] | TGI [8] [µM] | TGI [9] [µM] | TGI [10] [µM] |
| --- | --- | --- | --- | --- | --- | --- | --- | --- | --- | --- |
| COc1ccc([C@H]2[C@H]3COC(=O)[C@H]3C(C#N)=C3Sc4ccccc4N32)cc1 | 98.3 | > 62.3 | 69.7 | > 87.4 | > 74.4 | > 100 | > 100 | 68 | > 100 | > 100 |
| COC(=O)Cc1cc(O)c2c(c1O)C(=O)c1ccccc1C2=O | > 87.1 | > 100 | > 100 | > 100 | > 100 | > 100 | > 100 | > 100 | > 100 | > 100 |
| CC1=NNC(=O)C1C1C(=O)NN=C(c2c[nH]c3ccccc23)C1Br (stereo not drawn) | > 100 | > 100 | > 100 | > 100 | > 100 | > 100 | > 100 | > 100 | > 100 | > 100 |
| CC(=O)Nc1ccc2c(C)c3c(nc2n1)[nH]c1ccccc13 | > 100 | 96.2 | > 100 | 64.5 | 44 | 67.9 | 49 | 65.5 | > 100 | – |
| S=C1c2ccc(Cl)cc2-n2cnnc2C2CSCN12 (stereo not drawn) | > 100 | > 100 | > 100 | > 100 | > 100 | > 100 | > 100 | > 100 | > 100 | > 100 |
| COc1cccc(N2C(=O)CSC2c2cccc(Oc3ccccc3)c2)c1 (stereo not drawn) | 9.33 | 14.3 | > 100 | 76.9 | 5.53 | 69.1 | 12.3 | 92.9 | 42.9 | > 100 |
| COC1CC(N)(c2ccccc2)C(O)C(C)O1 (stereo not drawn) | > 100 | > 100 | > 100 | > 100 | > 100 | > 100 | > 100 | > 100 | > 100 | > 100 |
| C/C(CC(O)(C(F)(F)F)C(F)(F)F)=N\NC(N)=O | > 10 | > 10 | > 10 | > 10 | > 10 | > 10 | > 10 | > 10 | > 10 | > 10 |
| COc1cc2c(c3c1c(=O)c1ccccc1n3C)C=CC1(CCCC1)O2 | 31.9 | 6.33 | 31.6 | 35.5 | 29.3 | 37.1 | 24.6 | 38.1 | 46.8 | 28 |
| Cn1c(=O)c2c(nc3n(CC(O)CCl)c(=O)ccn23)n(C)c1=O (stereo not drawn) | > 100 | 66.2 | > 100 | > 100 | > 100 | > 100 | > 100 | > 100 | > 100 | > 100 |
| CCOC(=O)c1c(C)n(Cc2ccc(Cl)cc2Cl)c2c1cc(O)c1[nH]c3c(c12)CCCC3 | 38.6 | 56.4 | > 100 | > 100 | 45.6 | 45.5 | 89.9 | > 100 | 56.4 | 45 |
| N#CCCN(CCC#N)c1ccc(/C=C2\N=C(c3ccccc3)N(c3ccc(F)cc3)C2=O)cc1 | > 100 | > 100 | > 100 | > 100 | > 100 | > 100 | > 100 | > 100 | > 100 | > 100 |
| Cc1ccc(Nc2nc3[nH]ccc3c(=O)[nH]2)cc1 | > 100 | > 100 | > 100 | > 100 | > 100 | > 100 | > 100 | > 100 | > 100 | – |
| CN(C)CC(O)c1ccc(Cl)c2ccccc12 (stereo not drawn) | 45.9 | > 96.6 | > 100 | > 100 | > 63.8 | > 57 | > 100 | > 100 | > 100 | 36.3 |
| CSc1ncc2c(n1)C(C#N)C1Sc3ccccc3N1C2=O (stereo not drawn) | > 100 | > 100 | > 100 | > 100 | > 100 | > 100 | > 100 | > 100 | > 100 | > 100 |
| O=[N+]([O-])c1ccccc1OCCOc1ccccc1[N+](=O)[O-] | > 100 | > 100 | > 100 | > 100 | > 100 | > 100 | > 100 | > 100 | > 100 | > 100 |
| CC(=O)NC1C(OCc2ccccc2)OC(CO)C(O)C1OCC(=O)N1CCCC1C(=O)N[C@@H](CCC(=O)NCCCCNc1c2ccccc2nc2cccc([N+](=O)[O-])c12)C(N)=O (stereo partly drawn) | > 100 | > 100 | > 100 | > 100 | 30.6 | > 100 | 61.4 | 61.9 | > 100 | > 100 |
| O=C1c2cccc([N+](=O)[O-])c2C(=O)N1Cc1ccccc1 | > 100 | > 100 | > 100 | > 100 | > 100 | > 100 | > 100 | > 100 | > 100 | > 100 |
| Cc1ccc2nc(SCC(=O)N=Nc3c(O)[nH]c4ccccc34)n(-c3ccccc3)c(=O)c2c1 | 28.1 | 43.3 | 26.2 | 40.5 | 37.6 | 35.2 | 29 | 41.9 | 26.6 | 31.2 |
| CC(=O)c1c(-c2cccc3ccccc23)c(C#N)c(=S)n(C2OC(CO)C(O)C(O)C2O)c1C (stereo not drawn) | > 100 | > 100 | > 100 | > 100 | > 100 | > 100 | > 100 | > 100 | > 100 | > 100 |
| COc1ccc2c(c1)C(=O)CC1c3cnccc3C(=O)N21 (stereo not drawn) | > 100 | > 100 | > 100 | > 100 | > 100 | > 100 | > 100 | > 100 | > 100 | > 100 |

| Structure (SMILES) | TGI [1] [µM] | TGI [2] [µM] | TGI [3] [µM] | TGI [4] [µM] | TGI [5] [µM] | TGI [6] [µM] | TGI [7] [µM] | TGI [8] [µM] | TGI [9] [µM] | TGI [10] [µM] |
| --- | --- | --- | --- | --- | --- | --- | --- | --- | --- | --- |
| Oc1cc(Cc2ccccc2)c(Cc2ccccc2)cc1O | > 10 | > 10 | > 10 | > 10 | 3.04 | > 10 | > 10 | > 10 | > 10 | > 10 |
| Cc1ccc2c(c1)-c1nc(N)c(C#N)c(-c3ccc(Cl)cc3)c1CCS2(=O)=O | 92.1 | > 100 | > 100 | > 100 | > 100 | > 100 | > 100 | – | > 100 | > 100 |
| C#CCNC(CSSCC(N)C(=O)O)C(=O)O (stereo not drawn) | > 100 | > 100 | > 100 | > 100 | > 100 | > 100 | – | > 100 | > 100 | > 100 |
| CC12CCC(CC(=O)/C1=C(/Br)I)C2(C)C (stereo not drawn) | 33.7 | 31.2 | 34.8 | 31.2 | 26.7 | 29.9 | > 100 | 26.9 | 28.9 | 30.4 |
| O=c1[nH]cc(NCCCl)c(=O)[nH]1 | > 100 | > 100 | > 100 | > 100 | > 100 | > 100 | > 100 | > 100 | > 100 | > 100 |
| CC(=O)O[C@H]1CC(C)(C)C(=C=C/C(C)=C/C=C/C=C/C=C(C)/C=C2C=C(/C=C/[C@@]34O[C@]3(C)C[C@@H](O)CC4(C)C)C(=O)O/2)[C@](C)(O)C1 | > 100 | 98.1 | > 100 | 35 | 49.5 | 4.88 | > 100 | 23.2 | 43.6 | > 100 |
| Cc1cc(C)nc(NS(=O)(=O)c2ccc(NC(=O)c3c4ccccc4nc4ccccc34)cc2)n1 | > 100 | > 100 | > 100 | > 100 | > 100 | > 100 | > 100 | > 100 | > 100 | > 100 |
| OC1[C@@H]2[C@@H](O)CCCN2C[C@@H](O)[C@H]1O (stereo partly drawn) | > 100 | > 100 | > 100 | > 100 | > 100 | > 100 | > 100 | > 100 | > 100 | > 100 |
| O=c1[nH]c(Nc2ccccc2)nc2c1ncn2CC(O)CSCCO (stereo not drawn) | > 100 | > 100 | > 100 | > 100 | > 100 | > 100 | > 100 | > 100 | > 100 | > 100 |
| N#Cc1c(-c2ccc(Cl)cc2)c2c(nn3c4ccc5ccccc5c4nnc23)[nH]c1=O | 3.69 | 8.5 | 4.61 | 6.35 | 5.78 | > 52.5 | 16.2 | 3.62 | 8.26 | 5.28 |
| CCC/C(Cl)=N\OC(=O)Nc1ccc(F)cc1 | 35.3 | 3.47 | 31 | 19.3 | 30.2 | 43.4 | > 100 | 9.76 | > 65 | 38.4 |
| CC(C)/C(Cl)=N/OC(=O)Nc1ccc(Br)cc1 | 33.8 | 3.2 | 27.4 | 5.34 | 15.7 | 30.5 | 30.7 | 9.5 | 34 | 14.1 |
| COc1cc(C2c3c(ccc4ccccc34)C(=O)C3CCC(=O)N32)cc(OC)c1OC (stereo not drawn) | > 50 | > 50 | > 50 | > 50 | > 50 | > 50 | > 50 | > 50 | > 50 | > 50 |
| CC(N=NNc1ccc(-c2nc3ccccc3[nH]2)cc1)C(=O)O (stereo not drawn) | > 100 | > 100 | > 100 | 61.6 | > 100 | > 100 | 79 | 54.7 | > 100 | > 100 |
| COc1ccc(N2C(=O)C3c4[nH]c5ccc(OCc6ccccc6)cc5c4C4CCC(c5ccccc5)CC4C3C2=O)cc1 (stereo not drawn) | 50.4 | 25.8 | > 100 | > 84 | > 100 | > 83.8 | 12.3 | > 89 | 37.4 | – |
| O=C(O)CC(Cc1ccccc1Cl)C(=O)O (stereo not drawn) | > 100 | > 100 | > 100 | > 100 | > 100 | > 100 | > 100 | > 100 | > 100 | > 100 |
| COc1cc2c(c(O)c1O)C(=O)C1CCC(=O)N1C2c1cccc2ccccc12 (stereo not drawn) | > 50 | – | > 50 | > 50 | > 50 | > 50 | > 50 | > 50 | > 50 | > 50 |
| COC(=O)C1=C(O)C(C(=O)OC)C2CC(=O)CC1C2(C)C (stereo not drawn) | > 100 | > 100 | > 100 | > 100 | > 100 | > 100 | > 100 | > 100 | > 100 | > 100 |
| c1ccc(/C(=N/Nc2nc3ccccc3s2)C2CCCCC2)nc1 | 31.4 | 21.6 | 34.2 | 15.8 | 34.2 | 27.5 | 26.1 | 7.6 | 25 | 25.8 |
| NC(=O)CNC(=O)[C@@H]1CC(OCCC(=O)O)CN1C(=O)C1CCCN1C(=O)OCc1ccccc1 (stereo partly drawn) | > 100 | – | > 100 | > 100 | > 100 | > 100 | > 100 | > 100 | > 100 | > 100 |
| O=C(O)CCc1nc2c(n1-c1ccccc1)C(=O)c1ccccc1C2=O | > 100 | > 100 | > 100 | > 100 | > 100 | > 100 | > 100 | > 100 | > 100 | > 100 |
